Results as given in patent US20210345613A1, “HERBICIDAL PYRIMIDINE COMPOUNDS” (BASF SE, priority 2016, published 2021).

Experiments:
Format in all cases: in vivo
[1] = tested on: Setaria viridis; experiment: greenhouse herbicidal test, post-emergence treatment; details: post-emergence method, scale from 0 to 100, test period 2 to 4 weeks
Description: (§1) The seeds of the test plants were sown separately for each species. For the post-emergence treatment, the test plants were first grown to a height of 3 to 15 cm, depending on the plant habit, and only then treated with the active ingredients which had been suspended or emulsified in water. For this purpose, the test plants were either sown directly and grown in the same containers, or they were first grown separately as seedlings and transplanted into the test containers a few days prior to treatment. Depending on the species, the plants were kept at 10-25° C. or 20-35° C., respectively. The test period extended over 2 to 4 weeks. During this time, the plants were tended, and their response to the individual treatments was evaluated. Evaluation was carried out using a scale from 0 to 100. 100 means no emergence of the plants, or complete destruction of at least the aerial moieties, and 0 means no damage, or normal course of growth. A good herbicidal activity is given at values of at least 70 and a very good herbicidal activity is given at values of at least 85. The plants used in the greenhouse experiments were of the following species: [table]

[2] = tested on: Echinocloa crus-galli; experiment: as above; details: post-emergence method, scale from 0 to 100, test period 2 to 4 weeks
Description: as §1

[3] = tested on: Echinocloa crus-galli; experiment: greenhouse herbicidal test, pre-emergence treatment; details: pre-emergence method, scale from 0 to 100, test period 2 to 4 weeks
Description: (§2) The seeds of the test plants were sown separately for each species. For the pre-emergence treatment, the active ingredients, which had been suspended or emulsified in water, were applied directly after sowing by means of finely distributing nozzles. The containers were irrigated gently to promote germination and growth and subsequently covered with transparent plastic hoods until the plants had rooted. This cover caused uniform germination of the test plants, unless this had been impaired by the active ingredients. Depending on the species, the plants were kept at 10-25° C. or 20-35° C., respectively. The test period extended over 2 to 4 weeks. During this time, the plants were tended, and their response to the individual treatments was evaluated. Evaluation was carried out using a scale from 0 to 100. 100 means no emergence of the plants, or complete destruction of at least the aerial moieties, and 0 means no damage, or normal course of growth. A good herbicidal activity is given at values of at least 70 and a very good herbicidal activity is given at values of at least 85. The plants used in the greenhouse experiments were of the following species: [table]

[4] = tested on: Alopecurus myosuroides; experiment: greenhouse herbicidal test, post-emergence treatment; details: post-emergence method, application rate 2000 g/ha, scale from 0 to 100, test period 2 to 4 weeks
Description: as §1

[5] = tested on: Avena fatua; experiment: as above; details: post-emergence method, application rate 2000 g/ha, scale from 0 to 100, test period 2 to 4 weeks
Description: as §1

[6] = tested on: Apera spica-venti; experiment: greenhouse herbicidal test, pre-emergence treatment; details: pre-emergence method, application rate 2000 g/ha, scale from 0 to 100, test period 2 to 4 weeks
Description: as §2

SMILES | herbicidal activity against ECHCG ([3]; application rate 2000 g/ha) | herbicidal activity against ECHCG ([2]; application rate 2000 g/ha) | herbicidal activity against ALOMY [4] | herbicidal activity against AVEFA [5] | herbicidal activity against APESV [6] | other results
OC(c1ccccc1)c1nc(C2CC2)ncc1-c1ccccn1 (stereo not drawn) [Ex. 14] | – | – | – | – | – | herbicidal activity against SETVI ([1]; application rate 2000 g/ha): very good (a very good herbicidal activity is given at values of at least 85)
Fc1cccnc1-c1cnc(C2CC2)nc1-c1ccoc1 [Ex.11] | – | – | – | – | – | herbicidal activity against ECHCG ([2]; application rate 1000 g/ha): good (A good herbicidal activity is given at values of at least 70)
CCOC(=O)Cc1nc(C2CC2)ncc1-c1ncccc1Cl [Ex.20] | very good (a very good herbicidal activity is given at values of at least 85) | very good (a very good herbicidal activity is given at values of at least 85) | very good (a very good herbicidal activity is given at values of at least 85) | very good (a very good herbicidal activity is given at values of at least 85) | – | –
OC(Cc1nc(C2CC2)ncc1-c1ncccc1Cl)c1ccoc1 (stereo not drawn) [Ex.38] | very good (a very good herbicidal activity is given at values of at least 85) | very good (a very good herbicidal activity is given at values of at least 85) | – | – | – | –
Clc1cccnc1-c1cnc(C2CC2)nc1C=C1CCCCC1 [Ex.42] | – | good (A good herbicidal activity is given at values of at least 70) | – | – | – | –
Cc1nc(C)c(-c2nc(C3CC3)ncc2-c2ncccc2Cl)o1 [Ex.46] | very good (a very good herbicidal activity is given at values of at least 85) | very good (a very good herbicidal activity is given at values of at least 85) | – | very good (a very good herbicidal activity is given at values of at least 85) | very good (a very good herbicidal activity is given at values of at least 85) | herbicidal activity against SETVI ([1]; application rate 2000 g/ha): very good (a very good herbicidal activity is given at values of at least 85)
Clc1cccnc1-c1cnc(C2CC2)nc1/C=C/c1ccco1 [Ex.25] | very good (a very good herbicidal activity is given at values of at least 85) | very good (a very good herbicidal activity is given at values of at least 85) | very good (a very good herbicidal activity is given at values of at least 85) | – | very good (a very good herbicidal activity is given at values of at least 85) | herbicidal activity against SETVI ([1]; application rate 2000 g/ha): very good (a very good herbicidal activity is given at values of at least 85)
Cc1ccoc1-c1nc(C2CC2)ncc1-c1ncccc1Br [Ex.18] | – | good (A good herbicidal activity is given at values of at least 70) | – | very good (a very good herbicidal activity is given at values of at least 85) | – | –
CCC=Cc1nc(C2CC2)ncc1-c1ncccc1Cl [Ex.45] | very good (a very good herbicidal activity is given at values of at least 85) | – | good (A good herbicidal activity is given at values of at least 70) | – | good (A good herbicidal activity is given at values of at least 70) | –
Cc1ccc(-c2nc(C3CC3)ncc2-c2ncccc2Br)o1 [Ex.17] | very good (a very good herbicidal activity is given at values of at least 85) | – | – | very good (a very good herbicidal activity is given at values of at least 85) | very good (a very good herbicidal activity is given at values of at least 85) | –
Cc1occc1-c1nc(C2CC2)ncc1-c1ncccc1F [Ex.13] | – | good (A good herbicidal activity is given at values of at least 70) | – | – | – | herbicidal activity against SETVI ([1]; application rate 2000 g/ha): good (A good herbicidal activity is given at values of at least 70)
OC1(Cc2nc(C3CC3)ncc2-c2ncccc2Cl)CCCC1 [Ex.26] | – | – | – | – | – | herbicidal activity against SETVI ([1]; application rate 2000 g/ha): very good (a very good herbicidal activity is given at values of at least 85)
Cc1nc(C2CC2)ncc1-c1cc(Br)sc1Br [Ex.15] | – | – | – | – | – | herbicidal activity against ECHCG ([3]; application rate 500 g/ha): good (A good herbicidal activity is given at values of at least 70)
Cc1occc1-c1nc(C2CC2)ncc1-c1ncccc1Br [Ex.12] | – | good (A good herbicidal activity is given at values of at least 70) | good (A good herbicidal activity is given at values of at least 70) | good (A good herbicidal activity is given at values of at least 70) | very good (a very good herbicidal activity is given at values of at least 85) | –
OC(Cc1nc(C2CC2)ncc1-c1ncccc1Cl)c1ccccc1 (stereo not drawn) [Ex.36] | – | very good (a very good herbicidal activity is given at values of at least 85) | very good (a very good herbicidal activity is given at values of at least 85) | – | – | herbicidal activity against SETVI ([1]; application rate 2000 g/ha): very good (a very good herbicidal activity is given at values of at least 85)
Clc1cccnc1-c1cnc(C2CC2)nc1-c1ccoc1 [Ex.27] | very good (a very good herbicidal activity is given at values of at least 85) | very good (a very good herbicidal activity is given at values of at least 85) | very good (a very good herbicidal activity is given at values of at least 85) | very good (a very good herbicidal activity is given at values of at least 85) | very good (a very good herbicidal activity is given at values of at least 85) | –
C/C=C/c1nc(C2CC2)ncc1-c1ncccc1Cl [Ex.30] | very good (a very good herbicidal activity is given at values of at least 85) | good (A good herbicidal activity is given at values of at least 70) | very good (a very good herbicidal activity is given at values of at least 85) | – | very good (a very good herbicidal activity is given at values of at least 85) | –
Fc1cccnc1-c1cnc(C2CC2)nc1-c1ccco1 [Ex.9] | – | good (A good herbicidal activity is given at values of at least 70) | – | – | – | –
Clc1cccnc1-c1cnc(C2CC2)nc1C=C1CCCC1 [Ex.28] | very good (a very good herbicidal activity is given at values of at least 85) | very good (a very good herbicidal activity is given at values of at least 85) | very good (a very good herbicidal activity is given at values of at least 85) | good (A good herbicidal activity is given at values of at least 70) | very good (a very good herbicidal activity is given at values of at least 85) | –
Brc1ccsc1-c1cnc(C2CC2)nc1-c1ccco1 [Ex.6] | – | – | – | – | – | herbicidal activity against SETVI ([1]; application rate 1000 g/ha): very good (a very good herbicidal activity is given at values of at least 85)
Clc1cccnc1-c1cnc(C2CC2)nc1C=Cc1ccoc1 [Ex.39] | very good (a very good herbicidal activity is given at values of at least 85) | very good (a very good herbicidal activity is given at values of at least 85) | good (A good herbicidal activity is given at values of at least 70) | – | very good (a very good herbicidal activity is given at values of at least 85) | –
Brc1cccnc1-c1cnc(C2CC2)nc1-c1ccco1 [Ex.8] | – | – | – | – | very good (a very good herbicidal activity is given at values of at least 85) | –
Brc1cccnc1-c1cnc(C2CC2)nc1-c1ccco1 [Ex.10] | – | – | good (A good herbicidal activity is given at values of at least 70) | – | – | –
